Measured values taken from patent EP0093643A1 (priority 1982, dated 1983).

Experiments:
sécrétion gastrique = experiment: Pentagastrin-stimulated gastric hypersecretion in dogs with a Heidenhain pouch; assay type: in vivo, chien; details: Canis lupus familiaris, po, voie orale, dog, pentagastrin infusion, dose reducing hourly acid output by 50 %, doses expressed as base, read-out: DE50 (the source's name)
Description: L'activité inhibitrice de la sécrétion gastrique du composé de l'exemple 1 a été comparée à celle du racémique correspondant à l'aide du test d'hypersécrétion gastrique stimulée par la pentagastrine chez le chien porteur d'une poche de Heidenhein.
Trois chiens "mongrels", porteurs d'une poche de Heidenhein, à jeun depuis 18 heures, reçoivent pendant 4 heures, par perfusion veineuse, […]/kg/heure de pentagastrine sous un volume de 30 ml/heure. La sécrétion de la poche est recueillie dans un flacon qui est changé toutes les 15 minutes. Une heure et demie après le début de la perfusion, le produit à étudier est administré par voie orale dans une gélule n° 000. La dose efficace 50 % (DE 50) eet la dose de produit qui diminue de 50 % le débit acide horaire enregistré pendant la 3ème ou 4ème heure de l'expérimentation par rapport au débit acide horaire enregistré lors de la deuxième heure do la perfusion.
Les résultats obtenus sont rassemblés dans le tableau ci-après, où les dosas sont exprimées en produit sous forme de base : […]

[1] = tested on: récepteurs muscariniques de l'acétylcholine; assay type: binding, rat; details: compared with quinupramine; from IC50 of 3H-QNB displacement

CN(C)S(=O)(=O)c1ccc2c(c1)N(C1CN3CCC1CC3)c1ccccc1S2 (racemic) [racémique correspondant, reference compound]
ED50 (sécrétion gastrique): 1 mg/kg

c1ccc2c(c1)CCc1ccccc1N2[C@@H]1CN2CCC1CC2 [Exemple 2, [aza-1 bicyclo(2,2,2)octyl-3 (S)]-5 dihydro-10,11 5H-dibenz (b,f) azépine]
activity relative to the corresponding racemate [1]: deux fois plus actif

CN(C)S(=O)(=O)c1ccc2c(c1)N([C@@H]1CN3CCC1CC3)c1ccccc1S2 [Exemple 1, N,N-diméthyl [aza-1 bicyclo(2,2,2)octyl-3(S)] - 10 10 H-phénothiazinesulfonamide-2]
ED50 (sécrétion gastrique): 0.7 mg/kg
